Experimental data: patent US10071083B2 (Ovid Therapeutics Inc., priority 2017, dated 2018)

Legend:
[1] = human, in vivo
[2] = tested on: patients; conditions: patients with a history of drug abuse who received gaboxadol; cited from earlier work
[3] = tested on: healthy adults subjected to a 5-hour sleep restriction; experiment: Study of daytime performance after sleep restriction (Example 4); format: in vivo, human
Procedure: The study included a 2-night single-blind placebo run-in period, a 4-night double-blind treatment period during which sleep was restricted to 5 hours and a 2-night single-blind placebo run-out period. The study included healthy male and female volunteers 18 to <55 years of age.
2-night run-in period: All patients received placebo
2-night run-out period: All patients received placebo
The primary endpoints included observations based on the Multiple Sleep Latency Test (MSLT) and Slow Wave Sleep (SWS) assessment.

[4] = tested on: healthy, male and female subjects; experiment: Study of driving performance after gaboxadol administration (Example 3); format: in vivo, human
Source text: The study participants included healthy, male and female subjects between 21 and 45 years of age, with a valid drivers license for at least 3 years.
Following a cognitive and psychomotor test battery, the driving test started at 9 am and lasted for one hour.

[5] = tested on: tinnitus; conditions: published studies reviewed by Jufas and Wood (2015); cited from earlier work

For `Oc1noc2c1CCNC2` [gaboxadol, 4,5,6,7-tetrahydroisoxazolo [5,4-c]pyridine-3-ol], which “CL (in the CL/F line)” value ([1]; iv, 10 mg) is on record?
Its value is 438 mL/min.

What about the “dose dependence of plasma AUC0-∞ and Cmax” value ([1]; po) of the same compound?
Its value is “dose proportional increases”.

And the psychiatric adverse events [2]?
Its psychiatric adverse events is “steep increase”.

And the “biophysiological measures of stress (heart rate variability, cortisol levels, catecholamine levels, body temperature) versus placebo” value ([3]; gaboxadol 15 mg versus placebo)?
Its value is “no differences”.

What about the “daytime performance, effect sizes of the neurocognitive battery” value ([3]; gaboxadol 15 mg versus placebo) of the same compound?
Its value is “no strong evidence that gaboxadol improves daytime performance”.

What about the “daytime sleepiness during the Sleep Restriction period versus placebo (MSLT)” value ([3]; gaboxadol 15 mg, 4 nights, sleep restricted to 5 hours, p=0.047, 1 sided) of the same compound?
The value was “significantly less daytime sleepiness”.

What about the “MSLT longer than placebo, on average” value ([3]; gaboxadol 15 mg, last two Sleep Restriction days) of the same compound?
The value was 2.01 min.

What about the “Karolinska Sleepiness Score (KSS) less than placebo, on average” value ([3]; gaboxadol 15 mg, last two Sleep Restriction days, LDA model, p=0.058, 1 sided) of the same compound?
Its value is 0.68.

What about the “SWS longer than placebo, on average” value ([3]; gaboxadol 15 mg, last two Sleep Restriction nights) of the same compound?
The value was 20.53 min.

What about the “slow wave sleep (SWS) during the Sleep Restriction period versus placebo” value ([3]; gaboxadol 15 mg, p<0.001, 1 sided) of the same compound?
The value was “significantly more SWS”.

And the “most frequent adverse events, middle-of-the-night treatment” value ([4]; gaboxadol 15 mg at 4 am)?
The value was “dizziness, nausea and somnolence”.

And the “effect on driving after evening dose compared with blood alcohol” value ([4]; gaboxadol 15 mg evening dose, comparison with 0.05% blood alcohol concentration)?
The value was “less than the effect observed at a 0.05% blood alcohol concentration”.

What about the “most frequent adverse events, evening treatment” value ([4]; gaboxadol 15 mg in the evening) of the same compound?
Its value is “headache and somnolence”.

With `CN1C(=O)CN=C(c2ccccc2)c2cc(Cl)ccc21` [diazepam] as the compound, how does the “efficacy in treating tinnitus” value [5] read?
Its value is “not effective”.

For `O=C1CN=C(c2ccccc2Cl)c2cc([N+](=O)[O-])ccc2N1` [Clonazepam], which “efficacy in treating tinnitus” value [5] is on record?
Its value is “effective”.

Which “efficacy in treating tinnitus” value [5] does the source give for `Cc1nnc2n1-c1ccc(Cl)cc1C(c1ccccc1)=NC2` [alprazolam] here?
Its value is “opposing results”.
